{
  "source": "PubChem BioAssay AID2046",
  "about": "(NMMLSC, 2009)",
  "note": "Activity calls are given as the source filed them. No rule for the calls is given here.",
  "data": [
    {"biological_target": "Ras-related protein Rab-2A (Canis lupus familiaris) (UniProt P61105)", "sequence (P61105 whole entry, looked up)": "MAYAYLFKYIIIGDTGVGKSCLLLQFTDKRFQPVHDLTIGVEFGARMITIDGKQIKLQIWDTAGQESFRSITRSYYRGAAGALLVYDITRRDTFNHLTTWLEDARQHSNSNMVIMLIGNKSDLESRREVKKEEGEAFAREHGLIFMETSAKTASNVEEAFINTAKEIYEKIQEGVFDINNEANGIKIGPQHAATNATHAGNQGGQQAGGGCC", "experiment": "Rab2 wildtype GTP-binding inhibitors, SAR follow-up, biochemical, additional analogs, bead-based flow cytometry, multiplex (AID 2046)", "settings": "Rab2 wt", "values": [
      {"smiles": "O=Nc1c(-c2c(O)[nH]c3ccccc23)[nH]c2ccccc12", "EC50": "inactive"},
      {"smiles": "O=C1C(c2c(O)[nH]c3ccccc23)=Nc2ccccc21", "EC50": "inactive"},
      {"smiles": "O=C1C(c2c(O)[nH]c3ccc(Br)cc23)=Nc2ccccc21", "EC50": "inactive"},
      {"smiles": "O=Nc1c(-c2c(O)[nH]c3c(Cl)cccc23)[nH]c2ccccc12", "EC50": "inactive"},
      {"smiles": "O=Nc1c(-c2c(O)[nH]c3ccc(Br)cc23)[nH]c2ccccc12", "EC50": "inactive"},
      {"smiles": "O=C1C(c2c(O)[nH]c3c(Cl)cccc23)=Nc2ccccc21", "EC50": "inactive"},
      {"smiles": "O=C1N=c2ccccc2=C1c1[nH]c(=O)[nH]c1O", "EC50": "inactive"},
      {"smiles": "O=Nc1c(-c2c(O)[nH]c3c(Br)cccc23)[nH]c2ccccc12", "EC50": "inactive"},
      {"smiles": "O=C1C(c2c(O)[nH]c3c(Br)cccc23)=Nc2ccccc21", "EC50": "inactive"},
      {"smiles": "O=C1N=c2ccccc2=C1c1[nH]c(=S)[nH]c1O", "EC50": "inactive"},
      {"smiles": "O=Nc1c(-c2c(O)[nH]c3c(F)cccc23)[nH]c2ccccc12", "EC50": "inactive"},
      {"smiles": "O=C1C(c2c(O)[nH]c3c(F)cccc23)=Nc2ccccc21", "EC50": "inactive"}
    ]},
    {"biological_target": "Ras-related protein Rab-2A (Canis lupus familiaris) (UniProt P61105)", "experiment": "Rab2 wildtype GTP-binding inhibitors, SAR follow-up, biochemical, additional analogs, bead-based flow cytometry, multiplex (AID 2046)", "settings": "Rab2 wt, measured here: Ki from fitted EC50", "units": {"Ki": "µM"}, "values": [
      {"smiles": "COc1ccc2cc([C@@H](C)C(=O)O)ccc2c1", "Ki": 0.11},
      {"smiles": "O=Nc1c(-c2c(O)[nH]c3ccc(Br)cc23)[nH]c2ccccc12", "Ki": 4.15},
      {"smiles": "O=Nc1c(-c2c(O)[nH]c3c(Br)cccc23)[nH]c2ccccc12", "Ki": 4.19}
    ]}
  ]
}
